{
  "source": "paper PMC3115942",
  "about": "(PLoS ONE, 2011)",
  "key": {"[1]": {"experiment": "Liver transaminases (AST/ALT) in xenografted mice", "assay_type": "in vivo, mouse", "details": "50 mg/kg, 30 days injection scheme (5 day injection, 2 day pause), PANC-1 xenograft mice", "method": "For PANC-1 xenografts, 4–6 week old CB17/SCID mice were injected with 5×10^6 PANC-1 (n = 6 per group) cells in 200 µl PBS subcutaneously on day 1. IP treatment with 50 mg/kg MS-0022 began when median tumor size reached 25 mm^2 (day 27). MS-0022 was pulverized using a pestle, and was mixed into a stable suspension in water containing 1% Tween 80 (Sigma-Aldrich). Mice were treated with MS-0022 or solvent for a period of 30 days after initiation in a 5 day injection 2 day pause scheme, and tumor size was measured throughout using calipers (mm^2). After 30 days the mice were sacrificed and tumors dissected and weighed. The PANC-1 xenograft endpoint was taken two days after the last compound treatment.\nBlood was collected from the hepatic vein of freshly sacrificed animals into heparinized capillary blood collection tubes (Sarstedt), which were immediately centrifuged and the serum was collected. AST and ALT were run on non-hemolyzed samples using AST and ALT kits (Randox) following the manufacturer^'s instructions."}, "c-RAF(h)": {"biological_target": "T1, c-RAF(h) (Homo sapiens, UniProt P04049)", "T1 construct": "purchased Millipore (Upstate) KinaseProfiler", "T1 sequence (P04049 whole entry)": "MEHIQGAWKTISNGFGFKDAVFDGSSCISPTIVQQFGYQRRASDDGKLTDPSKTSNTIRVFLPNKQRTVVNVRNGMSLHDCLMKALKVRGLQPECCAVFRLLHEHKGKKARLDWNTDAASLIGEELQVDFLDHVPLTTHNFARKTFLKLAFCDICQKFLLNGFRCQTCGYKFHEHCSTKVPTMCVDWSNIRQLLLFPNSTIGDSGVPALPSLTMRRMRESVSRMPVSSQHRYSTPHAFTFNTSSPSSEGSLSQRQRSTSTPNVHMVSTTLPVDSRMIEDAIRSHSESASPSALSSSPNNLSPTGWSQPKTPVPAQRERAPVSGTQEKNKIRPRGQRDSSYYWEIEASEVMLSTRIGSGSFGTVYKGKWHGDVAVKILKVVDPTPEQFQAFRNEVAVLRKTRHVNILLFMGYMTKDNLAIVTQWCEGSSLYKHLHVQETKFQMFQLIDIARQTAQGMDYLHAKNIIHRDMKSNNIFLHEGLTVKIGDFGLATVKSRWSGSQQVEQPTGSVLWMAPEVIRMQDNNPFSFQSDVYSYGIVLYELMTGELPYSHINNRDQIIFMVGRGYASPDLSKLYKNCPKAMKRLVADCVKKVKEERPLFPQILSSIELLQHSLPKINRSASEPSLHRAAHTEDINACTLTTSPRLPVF", "experiment": "Millipore kinaseprofiler diversity array", "assay_type": "biochemical", "details": "10 µM MS-0022", "method": "(§1) Table 4 Kinase activity in presence of 10 µM MS-0022 in a kinaseprofiler diversity array. | column: Activity %"}, "KDR(h)": {"biological_target": "T2, KDR(h) (Homo sapiens, UniProt P35968)", "T2 construct": "purchased Millipore (Upstate) KinaseProfiler", "experiment": "Millipore kinaseprofiler diversity array", "assay_type": "biochemical", "details": "10 µM MS-0022", "method": "as §1"}, "Lyn(h)": {"biological_target": "T3, Lyn(h) (Homo sapiens, UniProt P07948)", "T3 construct": "purchased Millipore (Upstate) KinaseProfiler", "T3 sequence (P07948 whole entry)": "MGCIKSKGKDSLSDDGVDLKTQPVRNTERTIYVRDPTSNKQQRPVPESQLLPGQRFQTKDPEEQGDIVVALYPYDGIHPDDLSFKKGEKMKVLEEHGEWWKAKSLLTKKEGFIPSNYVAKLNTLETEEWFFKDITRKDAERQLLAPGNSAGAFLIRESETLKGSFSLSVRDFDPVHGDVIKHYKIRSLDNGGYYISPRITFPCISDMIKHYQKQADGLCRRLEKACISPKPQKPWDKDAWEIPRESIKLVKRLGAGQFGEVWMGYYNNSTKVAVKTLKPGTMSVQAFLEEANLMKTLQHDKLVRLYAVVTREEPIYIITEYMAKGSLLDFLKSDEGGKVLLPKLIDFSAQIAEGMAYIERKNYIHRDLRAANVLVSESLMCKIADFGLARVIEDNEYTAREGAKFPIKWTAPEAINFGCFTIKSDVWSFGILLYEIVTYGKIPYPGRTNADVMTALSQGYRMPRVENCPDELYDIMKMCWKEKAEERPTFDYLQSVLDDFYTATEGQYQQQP", "experiment": "Millipore kinaseprofiler diversity array", "assay_type": "biochemical", "details": "10 µM MS-0022", "method": "as §1"}, "CK1γ1(h)": {"biological_target": "T4, CK1γ1(h) (Homo sapiens, UniProt Q9HCP0)", "T4 construct": "purchased Millipore (Upstate) KinaseProfiler", "T4 sequence (Q9HCP0 whole entry)": "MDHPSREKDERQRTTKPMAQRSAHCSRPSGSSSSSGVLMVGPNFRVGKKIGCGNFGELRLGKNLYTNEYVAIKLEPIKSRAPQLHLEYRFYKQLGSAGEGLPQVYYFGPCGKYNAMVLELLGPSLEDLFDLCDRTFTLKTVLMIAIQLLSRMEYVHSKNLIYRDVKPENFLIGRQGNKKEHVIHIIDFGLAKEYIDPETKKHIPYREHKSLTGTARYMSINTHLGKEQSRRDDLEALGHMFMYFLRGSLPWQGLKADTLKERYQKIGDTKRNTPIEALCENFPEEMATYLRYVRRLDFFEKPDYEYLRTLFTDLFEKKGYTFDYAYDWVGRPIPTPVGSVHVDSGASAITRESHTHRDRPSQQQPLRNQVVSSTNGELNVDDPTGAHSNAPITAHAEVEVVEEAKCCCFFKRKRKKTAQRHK", "experiment": "Millipore kinaseprofiler diversity array", "assay_type": "biochemical", "details": "10 µM MS-0022", "method": "as §1"}, "GSK3β(h)": {"biological_target": "T5, GSK3β(h) (Homo sapiens, UniProt P49841)", "T5 construct": "purchased Millipore (Upstate) KinaseProfiler", "experiment": "Millipore kinaseprofiler diversity array", "assay_type": "biochemical", "details": "10 µM MS-0022", "method": "as §1"}, "Rse(h)": {"biological_target": "T6, Rse(h) (Homo sapiens, UniProt Q06418)", "T6 construct": "purchased Millipore (Upstate) KinaseProfiler", "experiment": "Millipore kinaseprofiler diversity array", "assay_type": "biochemical", "details": "10 µM MS-0022", "method": "as §1"}, "Pim-1(h)": {"biological_target": "T7, Pim-1(h) (Homo sapiens, UniProt P11309)", "T7 construct": "purchased Millipore (Upstate) KinaseProfiler", "experiment": "Millipore kinaseprofiler diversity array", "assay_type": "biochemical", "details": "10 µM MS-0022", "method": "as §1"}, "ROCK-I(h)": {"biological_target": "T8, ROCK-I(h) (Homo sapiens, UniProt Q13464)", "T8 construct": "purchased Millipore (Upstate) KinaseProfiler", "T8 sequence (Q13464 whole entry)": "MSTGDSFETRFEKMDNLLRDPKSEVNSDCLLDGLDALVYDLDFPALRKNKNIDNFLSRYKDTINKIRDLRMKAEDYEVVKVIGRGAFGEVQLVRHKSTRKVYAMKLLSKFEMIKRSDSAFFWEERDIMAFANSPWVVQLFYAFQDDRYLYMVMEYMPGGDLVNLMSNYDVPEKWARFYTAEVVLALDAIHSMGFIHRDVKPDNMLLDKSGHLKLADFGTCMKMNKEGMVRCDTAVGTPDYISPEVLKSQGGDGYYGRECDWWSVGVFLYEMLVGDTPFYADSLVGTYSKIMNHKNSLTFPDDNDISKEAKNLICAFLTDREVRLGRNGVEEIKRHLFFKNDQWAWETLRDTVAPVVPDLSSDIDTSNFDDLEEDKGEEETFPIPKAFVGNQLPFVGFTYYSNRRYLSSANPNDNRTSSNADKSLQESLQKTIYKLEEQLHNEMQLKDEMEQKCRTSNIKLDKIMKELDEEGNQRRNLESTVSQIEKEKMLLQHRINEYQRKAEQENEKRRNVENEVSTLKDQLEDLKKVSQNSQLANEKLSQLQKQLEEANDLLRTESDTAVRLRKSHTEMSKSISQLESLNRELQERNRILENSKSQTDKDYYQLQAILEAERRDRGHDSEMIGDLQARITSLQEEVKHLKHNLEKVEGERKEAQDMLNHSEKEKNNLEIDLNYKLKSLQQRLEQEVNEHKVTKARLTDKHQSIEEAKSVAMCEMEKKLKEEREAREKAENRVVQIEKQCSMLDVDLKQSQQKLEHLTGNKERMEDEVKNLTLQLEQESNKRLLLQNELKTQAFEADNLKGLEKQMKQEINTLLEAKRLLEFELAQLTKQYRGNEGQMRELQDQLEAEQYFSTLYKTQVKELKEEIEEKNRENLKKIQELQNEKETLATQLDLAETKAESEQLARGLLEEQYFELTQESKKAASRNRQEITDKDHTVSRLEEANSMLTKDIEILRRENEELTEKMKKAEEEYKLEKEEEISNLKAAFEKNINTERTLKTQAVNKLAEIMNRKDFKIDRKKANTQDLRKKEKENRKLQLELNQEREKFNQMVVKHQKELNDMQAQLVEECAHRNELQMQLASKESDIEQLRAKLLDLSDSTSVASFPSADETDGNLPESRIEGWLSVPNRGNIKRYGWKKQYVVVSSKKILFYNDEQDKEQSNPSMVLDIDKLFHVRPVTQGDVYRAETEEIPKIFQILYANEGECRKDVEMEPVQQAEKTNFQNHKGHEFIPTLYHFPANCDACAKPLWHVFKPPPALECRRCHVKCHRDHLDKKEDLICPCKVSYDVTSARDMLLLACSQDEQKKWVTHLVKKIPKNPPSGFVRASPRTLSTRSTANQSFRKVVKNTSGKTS", "experiment": "Millipore kinaseprofiler diversity array", "assay_type": "biochemical", "details": "10 µM MS-0022", "method": "as §1"}, "Fyn(h)": {"biological_target": "T9, Fyn(h) (Homo sapiens, UniProt P06241)", "T9 construct": "purchased Millipore (Upstate) KinaseProfiler", "T9 sequence (P06241 whole entry)": "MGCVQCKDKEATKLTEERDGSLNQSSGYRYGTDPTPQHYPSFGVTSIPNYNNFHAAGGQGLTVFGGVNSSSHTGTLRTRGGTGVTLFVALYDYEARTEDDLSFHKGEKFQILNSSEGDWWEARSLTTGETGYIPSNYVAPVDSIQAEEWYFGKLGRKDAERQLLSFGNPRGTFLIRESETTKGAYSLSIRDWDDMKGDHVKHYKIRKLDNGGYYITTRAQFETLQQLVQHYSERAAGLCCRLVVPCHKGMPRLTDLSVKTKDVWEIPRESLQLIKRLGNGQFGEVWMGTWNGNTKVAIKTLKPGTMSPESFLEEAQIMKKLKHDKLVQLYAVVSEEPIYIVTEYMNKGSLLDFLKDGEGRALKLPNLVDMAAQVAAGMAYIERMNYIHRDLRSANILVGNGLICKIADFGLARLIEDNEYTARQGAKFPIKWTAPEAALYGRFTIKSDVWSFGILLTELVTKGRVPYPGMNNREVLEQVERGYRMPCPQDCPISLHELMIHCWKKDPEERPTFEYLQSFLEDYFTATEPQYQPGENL", "experiment": "Millipore kinaseprofiler diversity array", "assay_type": "biochemical", "details": "10 µM MS-0022", "method": "as §1"}, "NEK2(h)": {"biological_target": "T10, NEK2(h) (Homo sapiens, UniProt P51955)", "T10 construct": "purchased Millipore (Upstate) KinaseProfiler", "T10 sequence (P51955 whole entry)": "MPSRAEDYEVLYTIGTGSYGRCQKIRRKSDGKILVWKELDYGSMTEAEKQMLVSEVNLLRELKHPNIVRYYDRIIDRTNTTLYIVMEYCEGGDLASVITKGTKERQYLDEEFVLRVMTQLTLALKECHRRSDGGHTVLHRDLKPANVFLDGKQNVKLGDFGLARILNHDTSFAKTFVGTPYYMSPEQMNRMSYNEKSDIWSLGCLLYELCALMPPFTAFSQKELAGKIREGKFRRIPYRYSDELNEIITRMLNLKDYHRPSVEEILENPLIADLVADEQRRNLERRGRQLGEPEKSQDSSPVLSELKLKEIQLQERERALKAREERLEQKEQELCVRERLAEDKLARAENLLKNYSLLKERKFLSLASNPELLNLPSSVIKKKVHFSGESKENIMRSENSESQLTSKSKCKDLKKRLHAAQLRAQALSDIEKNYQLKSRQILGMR", "experiment": "Millipore kinaseprofiler diversity array", "assay_type": "biochemical", "details": "10 µM MS-0022", "method": "as §1"}, "TAK1(h)": {"biological_target": "T11, TAK1(h) (Homo sapiens, UniProt O43318)", "T11 construct": "purchased Millipore (Upstate) KinaseProfiler", "T11 sequence (O43318 1-303 limits assumed)": "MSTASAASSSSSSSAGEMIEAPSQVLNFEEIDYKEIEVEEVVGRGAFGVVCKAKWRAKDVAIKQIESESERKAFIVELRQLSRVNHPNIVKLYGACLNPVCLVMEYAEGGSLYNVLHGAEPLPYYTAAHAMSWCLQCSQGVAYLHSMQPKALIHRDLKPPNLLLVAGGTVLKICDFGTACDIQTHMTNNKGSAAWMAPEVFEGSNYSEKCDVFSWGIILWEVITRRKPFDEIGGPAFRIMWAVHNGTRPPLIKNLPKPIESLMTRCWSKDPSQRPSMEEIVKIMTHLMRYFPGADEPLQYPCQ", "experiment": "Millipore kinaseprofiler diversity array", "assay_type": "biochemical", "details": "10 µM MS-0022", "method": "as §1"}, "PAK2(h)": {"biological_target": "T12, PAK2(h) (Homo sapiens, UniProt Q13177)", "T12 construct": "purchased Millipore (Upstate) KinaseProfiler", "T12 sequence (Q13177 whole entry)": "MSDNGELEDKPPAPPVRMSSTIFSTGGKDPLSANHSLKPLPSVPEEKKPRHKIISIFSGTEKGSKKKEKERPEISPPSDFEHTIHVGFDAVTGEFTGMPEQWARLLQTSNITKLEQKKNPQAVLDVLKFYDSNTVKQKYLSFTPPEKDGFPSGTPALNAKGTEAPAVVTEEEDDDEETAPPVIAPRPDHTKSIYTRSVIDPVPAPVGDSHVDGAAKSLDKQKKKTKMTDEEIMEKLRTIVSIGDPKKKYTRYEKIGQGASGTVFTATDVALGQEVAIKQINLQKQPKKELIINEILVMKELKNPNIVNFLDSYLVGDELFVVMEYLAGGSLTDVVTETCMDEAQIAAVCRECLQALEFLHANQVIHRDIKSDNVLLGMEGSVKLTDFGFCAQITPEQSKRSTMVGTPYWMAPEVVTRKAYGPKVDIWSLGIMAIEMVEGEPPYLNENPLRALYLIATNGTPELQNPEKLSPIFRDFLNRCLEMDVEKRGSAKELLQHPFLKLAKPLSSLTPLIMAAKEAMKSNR", "experiment": "Millipore kinaseprofiler diversity array", "assay_type": "biochemical", "details": "10 µM MS-0022", "method": "as §1"}, "Rsk1(h)": {"biological_target": "T13, Rsk1(h) (Homo sapiens, UniProt Q15418)", "T13 construct": "purchased Millipore (Upstate) KinaseProfiler", "experiment": "Millipore kinaseprofiler diversity array", "assay_type": "biochemical", "details": "10 µM MS-0022", "method": "as §1"}, "[2]": {"test_system": "TNF-α induced NfkB signaling in NIH3T3 cells", "experiment": "NFkB luciferase reporter assay in NIH3T3", "assay_type": "cell-based", "details": "NIH3T3, 10 µM and 20 µM, 24 hours", "method": "(§2) Vectors were obtained from the following: GliBS-Luc reporter (gift from H. Sasaki), pBluescript (pBS) (Stratagene), FL-HA-GLI1 (Gli1) and Gli2-GFP (Gli2) (gifts from R. Toftgård), Super8XTOPFlash, and NFkB-luc (Panomics). 10 ng renilla luciferase (pRL-TK) (Promega) was used as a transfection control. HEK293 and NIH3T3 cells were seeded at 80,000 per well in 48-well plates on day 1, and were co-transfected on day 2 using a total of 0.4 µg plasmid per well mixed at 1∶3 in FUGENE6 according to manufacturer^'s instructions. On day 3, control medium and activating medium (50% L1 conditioned medium, 50% Shh conditioned medium or medium containing 10 ng/mL recombinant rcrTNF-α (R&D Systems)) +/− 10–20 µM MS-0022 were added, using DMSO as a control (the NFkB pathway inhibitor Bay11-7082 was used as a control in the NFkB assay). Samples were analyzed on day 4 or 5 using the Dual Luciferase assay kit according to manufacturer^'s instructions. Graphs display relative or fold reporter activity, and are calculated from a mean ratio of firefly reporter luminescence/pRL-TK luminescence with standard deviation error bars (n = 3). The experiments have been repeated with similar results."}, "[3]": {"test_system": "Gli1 or Gli2 (GliBS-Luc, NIH3T3 cells)", "experiment": "GliBS-Luc reporter in NIH3T3 cells with forced Gli1 or Gli2 expression", "assay_type": "cell-based", "details": "10 µM, 48 hours", "method": "as §2"}, "[4]": {"test_system": "Gli1 protein in Sufu−/− MEF", "experiment": "Gli1 immunostaining of Sufu−/− MEF", "assay_type": "cell-based, mouse", "details": "20 µM, 48 hours"}, "SUIT-2 cells": {"test_system": "SUIT-2 cells", "experiment": "In vitro antiproliferative assay (MTS), SUIT-2", "assay_type": "cell-based, human", "details": "4 day", "method": "Cells were plated at a density of 3000 (THLE-2 and PC-3) and 1000 (PANC-1, SUIT-2 and FEMX) cells per well (on the basis of their growth rate) in 200 µl of medium in a 96-well plate. Medium was changed daily, and after four days, the assay was read using a MTS kit (Promega) according to the instructions of the manufacturer. Graphs display average of percent growth with standard deviation (n = 8)."}, "AMPK(r)": {"test_system": "AMPK(r)", "experiment": "Millipore kinaseprofiler diversity array", "assay_type": "biochemical, rat", "details": "10 µM MS-0022", "method": "as §1"}, "[5]": {"experiment": "Compound concentration in mouse liver tissue", "assay_type": "in vivo", "details": "C57BL, 5 mg/kg, 2 hours after IP administration"}, "[6]": {"test_system": "Gli1 mRNA expression in Ptch−/− MEF", "experiment": "Real time PCR of Gli1 mRNA in Ptch−/− MEF", "assay_type": "cell-based, mouse", "details": "5 µM, 48 hours", "method": "Cells were lysed for RNA extraction after 48 or 72 hours of treatment. Total RNA from cultured cells or tumor tissue was isolated using the GeneElute miniprep kit (Sigma-Aldritch) following the manufacturer^'s instructions. cDNA was synthesized from the isolated mRNA using the Retroscript kit (Ambion), and real-time PCR was carried out using the SYBR Green PCR master mix (Stratagene) according to the manufacturer^'s instructions with an Mx3000P cycler (Stratagene). The relative concentrations of cDNA present in each sample were calculated by the MxPro software (Stratagene), normalized for GAPDH (mRNA from cells) or GUS (mRNA from tumors). For real time PCR primer sequences see Table 6. For the tumor tissue real time PCR, previously described human and mouse specific primers against GUSB, PTCH1 and GLI1were used."}},
  "note": "Entries after “also recorded” stand apart in the source; their conditions may differ.",
  "data": [
    {"smiles": "Cc1cccn2cc(-c3ccc(NC(=O)c4ccccc4Br)cc3)nc12", "note": "[MS-0022, 2-bromo-N-(4-(8-methylimidazo[1,2-a]pyridin-2-yl)phenyl)benzamide]", "values": [
      {"measurement": "AST/ALT levels", "setting": "[1]", "result": "greater than 1"},
      {"measurement": "activity at 10 µM", "setting": "c-RAF(h)", "result": 106, "unit": "%"},
      {"measurement": "activity at 10 µM", "setting": "KDR(h)", "result": 103, "unit": "%"},
      {"measurement": "activity at 10 µM", "setting": "Lyn(h)", "result": 103, "unit": "%"},
      {"measurement": "activity at 10 µM", "setting": "CK1γ1(h)", "result": 93, "unit": "%"},
      {"measurement": "activity at 10 µM", "setting": "GSK3β(h)", "result": 88, "unit": "%"},
      {"measurement": "activity at 10 µM", "setting": "Rse(h)", "result": 107, "unit": "%"},
      {"measurement": "activity at 10 µM", "setting": "Pim-1(h)", "result": 103, "unit": "%"},
      {"measurement": "activity at 10 µM", "setting": "ROCK-I(h)", "result": 103, "unit": "%"},
      {"measurement": "activity at 10 µM", "setting": "Fyn(h)", "result": 100, "unit": "%"},
      {"measurement": "activity at 10 µM", "setting": "NEK2(h)", "result": 127, "unit": "%"},
      {"measurement": "activity at 10 µM", "setting": "TAK1(h)", "result": 98, "unit": "%"},
      {"measurement": "activity at 10 µM", "setting": "PAK2(h)", "result": 93, "unit": "%"},
      {"measurement": "activity at 10 µM", "setting": "Rsk1(h)", "result": 91, "unit": "%"},
      {"measurement": "TNF-α induced NfkB signaling", "setting": "[2]", "result": "nor did it block; also recorded: slight increase of NFkB signaling"},
      {"measurement": "inhibition of Gli1 or Gli2 when pathway further activated by Shh", "setting": "[3]; 50% Shh conditioned medium", "result": "partial inhibition"},
      {"measurement": "Hh pathway inhibitory effect at the level of forced Gli1 or Gli2 expression", "setting": "[3]; without Shh", "result": "not detected"},
      {"measurement": "ratio of nuclear versus cytoplasmic Gli1", "setting": "[4]", "result": "did not alter the ratio"},
      {"measurement": "total level of Gli1 in the cells", "setting": "[4]", "result": "the total level of Gli1 in the cells was reduced"},
      {"measurement": "growth (MTS), SUIT-2", "setting": "SUIT-2 cells", "result": "only MS-0022 reduced growth"},
      {"measurement": "Activity %", "setting": "AMPK(r)", "result": 98, "unit": "%"},
      {"measurement": "concentration at 2 h", "setting": "[5]", "result": 244, "unit": "ng/g"},
      {"measurement": "Gli1 mRNA expression in Ptch−/− MEFs", "setting": "[6]", "result": "reduced Gli1 mRNA expression"}
    ]}
  ]
}
